Measurements reported in ChEMBL document CHEMBL5212743, “Selectivity Literature for EUbOPEN Chemogenomics Library wave 3” (2023).

Columns and labels:
[1] = biological target: T1, Adenosine receptor A3 (Homo sapiens) (UniProt P0DMS8); experiment: Selectivity interaction (CEREP panel (Eurofins, binding assay)) EUB0000262b ADORA3; details: at 10 µM
T1 sequence (whole entry): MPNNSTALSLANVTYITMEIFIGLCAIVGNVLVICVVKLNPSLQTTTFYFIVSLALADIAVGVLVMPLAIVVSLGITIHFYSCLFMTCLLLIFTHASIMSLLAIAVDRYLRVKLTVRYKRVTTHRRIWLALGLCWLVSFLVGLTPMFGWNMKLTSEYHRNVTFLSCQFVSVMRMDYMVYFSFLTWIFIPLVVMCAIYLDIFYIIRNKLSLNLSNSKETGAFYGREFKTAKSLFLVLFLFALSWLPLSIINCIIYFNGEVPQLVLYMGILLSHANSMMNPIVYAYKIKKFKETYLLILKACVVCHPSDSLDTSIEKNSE

[2] = biological target: T1, Adenosine receptor A3 (Homo sapiens); experiment: Selectivity interaction (Enzyme panel (Eurofins-Cerep)) EUB0000262b ADORA3; details: at 10 µM
[3] = biological target: Peroxisome proliferator-activated receptor gamma (Homo sapiens) (UniProt P37231); experiment: Selectivity interaction (CEREP panel (Eurofins, binding assay)) EUB0000262b PPARG; details: at 10 µM
Peroxisome proliferator-activated receptor gamma (Homo sapiens), sequence (P37231 whole entry): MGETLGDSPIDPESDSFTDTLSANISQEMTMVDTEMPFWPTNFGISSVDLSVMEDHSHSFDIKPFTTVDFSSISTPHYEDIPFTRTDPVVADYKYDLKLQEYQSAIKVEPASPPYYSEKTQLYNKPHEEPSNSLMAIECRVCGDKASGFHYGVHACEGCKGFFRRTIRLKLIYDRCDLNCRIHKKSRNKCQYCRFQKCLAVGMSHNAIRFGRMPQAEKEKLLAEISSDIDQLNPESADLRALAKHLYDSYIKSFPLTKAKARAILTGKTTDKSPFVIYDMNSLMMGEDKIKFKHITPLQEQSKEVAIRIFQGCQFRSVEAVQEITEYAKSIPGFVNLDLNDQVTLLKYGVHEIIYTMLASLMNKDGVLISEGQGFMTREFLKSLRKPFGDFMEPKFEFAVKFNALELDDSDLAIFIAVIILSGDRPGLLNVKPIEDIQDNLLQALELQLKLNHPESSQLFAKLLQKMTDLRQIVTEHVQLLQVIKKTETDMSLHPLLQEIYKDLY

[4] = biological target: Peroxisome proliferator-activated receptor gamma (Homo sapiens) (UniProt P37231); experiment: Selectivity interaction (Enzyme panel (Eurofins-Cerep)) EUB0000262b PPARG; details: at 10 µM
[5] = biological target: Cholecystokinin receptor type A (Homo sapiens) (UniProt P32238); experiment: Selectivity interaction (CEREP panel (Eurofins, binding assay)) EUB0000262b CCKAR; details: at 10 µM
Cholecystokinin receptor type A (Homo sapiens), sequence (P32238 whole entry): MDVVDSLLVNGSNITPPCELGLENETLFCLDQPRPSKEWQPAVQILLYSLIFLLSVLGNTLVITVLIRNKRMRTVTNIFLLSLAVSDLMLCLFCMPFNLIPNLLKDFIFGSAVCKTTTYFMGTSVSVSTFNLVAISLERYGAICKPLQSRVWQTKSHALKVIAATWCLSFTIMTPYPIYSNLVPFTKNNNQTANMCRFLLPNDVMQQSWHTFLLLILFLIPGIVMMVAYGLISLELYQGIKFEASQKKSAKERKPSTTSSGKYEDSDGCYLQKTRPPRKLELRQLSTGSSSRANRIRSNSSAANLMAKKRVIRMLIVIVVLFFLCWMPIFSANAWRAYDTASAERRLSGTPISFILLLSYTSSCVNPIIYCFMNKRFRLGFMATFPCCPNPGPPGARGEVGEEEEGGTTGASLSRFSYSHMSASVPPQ

[6] = biological target: Cholecystokinin receptor type A (Homo sapiens) (UniProt P32238); experiment: Selectivity interaction (Enzyme panel (Eurofins-Cerep)) EUB0000262b CCKAR; details: at 10 µM
[7] = biological target: T2, Histamine H1 receptor (Homo sapiens, UniProt P35367); experiment: Selectivity interaction (CEREP panel (Eurofins, binding assay)) EUB0000262b HRH1; details: at 10 µM
T2 sequence (P35367 whole entry): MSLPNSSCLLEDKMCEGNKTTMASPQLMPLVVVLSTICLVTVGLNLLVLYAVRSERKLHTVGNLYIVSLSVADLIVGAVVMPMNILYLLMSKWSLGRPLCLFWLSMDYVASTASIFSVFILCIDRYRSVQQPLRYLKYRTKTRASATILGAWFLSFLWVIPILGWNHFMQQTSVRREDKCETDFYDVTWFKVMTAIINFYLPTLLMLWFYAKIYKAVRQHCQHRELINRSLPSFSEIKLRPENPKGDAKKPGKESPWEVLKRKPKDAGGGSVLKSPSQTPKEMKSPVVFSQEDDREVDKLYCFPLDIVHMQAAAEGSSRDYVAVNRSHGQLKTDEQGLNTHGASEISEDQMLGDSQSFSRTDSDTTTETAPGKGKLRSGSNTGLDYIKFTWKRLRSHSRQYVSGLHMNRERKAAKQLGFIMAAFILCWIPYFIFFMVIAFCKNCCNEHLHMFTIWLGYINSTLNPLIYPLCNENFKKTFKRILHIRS

[8] = biological target: T2, Histamine H1 receptor; experiment: Selectivity interaction (Enzyme panel (Eurofins-Cerep)) EUB0000262b HRH1; details: at 10 µM
[9] = biological target: Delta-type opioid receptor (Homo sapiens) (UniProt P41143); experiment: Selectivity interaction (CEREP panel (Eurofins, binding assay)) EUB0000262b OPRD1; details: at 10 µM
Delta-type opioid receptor (Homo sapiens), sequence (P41143 whole entry): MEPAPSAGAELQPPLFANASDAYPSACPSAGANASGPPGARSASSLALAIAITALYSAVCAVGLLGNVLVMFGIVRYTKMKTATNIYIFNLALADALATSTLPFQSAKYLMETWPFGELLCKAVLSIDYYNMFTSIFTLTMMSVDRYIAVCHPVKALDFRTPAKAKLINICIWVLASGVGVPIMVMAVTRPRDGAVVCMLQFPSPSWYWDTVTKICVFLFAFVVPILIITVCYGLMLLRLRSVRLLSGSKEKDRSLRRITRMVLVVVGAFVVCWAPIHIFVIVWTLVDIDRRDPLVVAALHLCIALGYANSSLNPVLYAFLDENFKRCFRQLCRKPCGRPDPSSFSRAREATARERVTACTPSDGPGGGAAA

[10] = biological target: Delta-type opioid receptor (Homo sapiens) (UniProt P41143); experiment: Selectivity interaction (Enzyme panel (Eurofins-Cerep)) EUB0000262b OPRD1; details: at 10 µM
[11] = biological target: MAP/microtubule affinity-regulating kinase 3 (Homo sapiens) (UniProt P27448); experiment: Selectivity interaction (KinomeScan (DiscoverX)) EUB0000262b MARK3; details: at 1 µM
[12] = biological target: T3, Prostaglandin G/H synthase 2 (Homo sapiens) (UniProt P35354); experiment: Selectivity interaction (CEREP panel (Eurofins, binding assay)) EUB0000262b PTGS2; details: at 10 µM
T3 sequence (whole entry): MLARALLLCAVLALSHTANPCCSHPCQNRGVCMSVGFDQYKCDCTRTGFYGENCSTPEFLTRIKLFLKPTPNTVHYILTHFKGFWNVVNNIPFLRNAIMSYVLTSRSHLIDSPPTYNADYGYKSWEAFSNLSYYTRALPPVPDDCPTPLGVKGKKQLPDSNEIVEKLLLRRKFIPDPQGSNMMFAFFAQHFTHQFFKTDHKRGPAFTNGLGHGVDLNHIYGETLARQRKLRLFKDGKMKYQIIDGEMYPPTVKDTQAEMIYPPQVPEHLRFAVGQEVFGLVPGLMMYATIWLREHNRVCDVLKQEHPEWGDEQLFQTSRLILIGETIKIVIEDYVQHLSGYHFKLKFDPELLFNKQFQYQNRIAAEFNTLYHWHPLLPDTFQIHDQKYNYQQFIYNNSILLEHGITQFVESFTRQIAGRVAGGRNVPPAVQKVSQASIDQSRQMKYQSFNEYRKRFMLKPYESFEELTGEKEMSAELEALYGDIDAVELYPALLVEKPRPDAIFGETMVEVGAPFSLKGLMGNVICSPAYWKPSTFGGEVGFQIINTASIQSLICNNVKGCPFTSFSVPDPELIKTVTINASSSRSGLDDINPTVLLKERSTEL

[13] = biological target: T3, Prostaglandin G/H synthase 2 (Homo sapiens); experiment: Selectivity interaction (Enzyme panel (Eurofins-Cerep)) EUB0000262b PTGS2; details: at 10 µM
[14] = biological target: T4, Aurora kinase C (Homo sapiens) (UniProt Q9UQB9); experiment: Selectivity interaction (KinomeScan (DiscoverX)) EUB0000262b AURKC; details: at 1 µM
T4 sequence (whole entry): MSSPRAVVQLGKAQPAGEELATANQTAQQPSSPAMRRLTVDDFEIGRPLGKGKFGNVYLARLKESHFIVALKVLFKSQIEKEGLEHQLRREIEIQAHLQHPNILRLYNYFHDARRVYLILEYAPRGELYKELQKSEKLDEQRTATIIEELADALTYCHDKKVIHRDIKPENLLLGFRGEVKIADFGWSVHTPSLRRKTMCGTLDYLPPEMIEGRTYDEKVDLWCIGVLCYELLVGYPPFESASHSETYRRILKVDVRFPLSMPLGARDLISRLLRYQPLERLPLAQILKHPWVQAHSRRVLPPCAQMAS

[15] = biological target: Urotensin-2 receptor (Homo sapiens) (UniProt Q9UKP6); experiment: Selectivity interaction (CEREP panel (Eurofins, binding assay)) EUB0000262b UTS2R; details: at 10 µM
Urotensin-2 receptor (Homo sapiens), sequence (Q9UKP6 whole entry): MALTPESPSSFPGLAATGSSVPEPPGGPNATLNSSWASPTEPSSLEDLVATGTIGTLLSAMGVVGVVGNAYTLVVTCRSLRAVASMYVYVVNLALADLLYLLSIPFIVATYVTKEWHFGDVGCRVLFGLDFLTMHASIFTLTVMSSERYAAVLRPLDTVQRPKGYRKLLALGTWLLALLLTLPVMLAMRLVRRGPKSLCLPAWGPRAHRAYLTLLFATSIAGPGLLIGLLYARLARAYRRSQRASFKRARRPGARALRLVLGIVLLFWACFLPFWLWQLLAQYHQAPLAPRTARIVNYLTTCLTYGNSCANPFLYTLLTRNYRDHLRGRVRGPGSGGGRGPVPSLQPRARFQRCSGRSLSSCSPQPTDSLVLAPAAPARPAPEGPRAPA

[16] = biological target: Urotensin-2 receptor (Homo sapiens) (UniProt Q9UKP6); experiment: Selectivity interaction (Enzyme panel (Eurofins-Cerep)) EUB0000262b UTS2R; details: at 10 µM
[17] = biological target: T5, Gamma-aminobutyric acid receptor subunit alpha-1 (Homo sapiens, UniProt P14867); experiment: Selectivity interaction (GPCR panel (PDSP screen)) EUB0000262b GABRA1
T5 sequence (P14867 whole entry): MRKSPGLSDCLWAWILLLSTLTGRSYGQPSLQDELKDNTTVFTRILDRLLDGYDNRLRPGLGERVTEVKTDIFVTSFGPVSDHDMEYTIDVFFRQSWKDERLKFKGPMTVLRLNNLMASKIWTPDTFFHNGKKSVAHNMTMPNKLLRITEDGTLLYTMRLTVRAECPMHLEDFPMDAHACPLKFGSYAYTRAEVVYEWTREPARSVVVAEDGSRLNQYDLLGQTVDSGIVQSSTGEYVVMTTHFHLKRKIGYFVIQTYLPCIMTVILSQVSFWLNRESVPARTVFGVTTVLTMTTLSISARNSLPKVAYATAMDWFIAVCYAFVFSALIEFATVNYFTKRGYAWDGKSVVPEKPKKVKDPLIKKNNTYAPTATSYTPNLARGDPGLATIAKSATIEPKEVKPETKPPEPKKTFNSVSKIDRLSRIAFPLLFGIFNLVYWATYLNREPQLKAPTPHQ

[18] = biological target: T6, Amine oxidase [flavin-containing] A (Homo sapiens, UniProt P21397); experiment: Selectivity interaction (CEREP panel (Eurofins, binding assay)) EUB0000262b MAOA; details: at 10 µM
T6 sequence (P21397 whole entry): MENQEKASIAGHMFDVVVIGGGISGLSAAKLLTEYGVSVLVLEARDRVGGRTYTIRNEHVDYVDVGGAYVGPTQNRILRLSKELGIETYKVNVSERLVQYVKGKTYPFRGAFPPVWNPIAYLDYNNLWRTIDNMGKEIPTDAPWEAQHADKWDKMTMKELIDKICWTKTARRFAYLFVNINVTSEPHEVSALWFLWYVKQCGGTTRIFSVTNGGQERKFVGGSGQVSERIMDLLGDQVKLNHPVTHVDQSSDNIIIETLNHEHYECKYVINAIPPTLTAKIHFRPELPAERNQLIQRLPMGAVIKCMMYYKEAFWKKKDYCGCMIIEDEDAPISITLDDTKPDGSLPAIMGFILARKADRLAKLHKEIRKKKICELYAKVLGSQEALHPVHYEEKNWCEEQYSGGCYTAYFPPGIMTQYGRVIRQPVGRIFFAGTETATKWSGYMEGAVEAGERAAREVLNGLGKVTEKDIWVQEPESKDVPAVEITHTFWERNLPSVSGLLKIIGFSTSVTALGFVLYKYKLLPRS

[19] = biological target: T6, Amine oxidase [flavin-containing] A; experiment: Selectivity interaction (Enzyme panel (Eurofins-Cerep)) EUB0000262b MAOA; details: at 10 µM
[20] = biological target: Melatonin receptor type 1A (Homo sapiens) (UniProt P48039); experiment: Selectivity interaction (CEREP panel (Eurofins, radioligand binding assay, enzymes, GPCRS, transporters, and ion channels)) EUB0000308b MTNR1A; details: at 10 µM
Melatonin receptor type 1A (Homo sapiens), sequence (P48039 whole entry): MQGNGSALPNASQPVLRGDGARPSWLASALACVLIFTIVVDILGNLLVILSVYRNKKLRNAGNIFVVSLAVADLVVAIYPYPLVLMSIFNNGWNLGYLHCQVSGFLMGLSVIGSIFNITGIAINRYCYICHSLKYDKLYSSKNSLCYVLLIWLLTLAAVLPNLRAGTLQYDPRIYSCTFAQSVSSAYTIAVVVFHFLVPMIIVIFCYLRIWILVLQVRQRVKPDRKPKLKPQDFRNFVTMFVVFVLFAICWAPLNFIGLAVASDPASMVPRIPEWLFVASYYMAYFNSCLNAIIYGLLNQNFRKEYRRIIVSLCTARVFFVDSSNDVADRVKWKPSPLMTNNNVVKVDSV

[21] = biological target: Sodium-dependent noradrenaline transporter (Homo sapiens, UniProt P23975); experiment: Selectivity interaction (CEREP panel (Eurofins, radioligand binding assay, enzymes, GPCRS, transporters, and ion channels)) EUB0000308b SLC6A2; details: at 10 µM
Sodium-dependent noradrenaline transporter, sequence (P23975 whole entry): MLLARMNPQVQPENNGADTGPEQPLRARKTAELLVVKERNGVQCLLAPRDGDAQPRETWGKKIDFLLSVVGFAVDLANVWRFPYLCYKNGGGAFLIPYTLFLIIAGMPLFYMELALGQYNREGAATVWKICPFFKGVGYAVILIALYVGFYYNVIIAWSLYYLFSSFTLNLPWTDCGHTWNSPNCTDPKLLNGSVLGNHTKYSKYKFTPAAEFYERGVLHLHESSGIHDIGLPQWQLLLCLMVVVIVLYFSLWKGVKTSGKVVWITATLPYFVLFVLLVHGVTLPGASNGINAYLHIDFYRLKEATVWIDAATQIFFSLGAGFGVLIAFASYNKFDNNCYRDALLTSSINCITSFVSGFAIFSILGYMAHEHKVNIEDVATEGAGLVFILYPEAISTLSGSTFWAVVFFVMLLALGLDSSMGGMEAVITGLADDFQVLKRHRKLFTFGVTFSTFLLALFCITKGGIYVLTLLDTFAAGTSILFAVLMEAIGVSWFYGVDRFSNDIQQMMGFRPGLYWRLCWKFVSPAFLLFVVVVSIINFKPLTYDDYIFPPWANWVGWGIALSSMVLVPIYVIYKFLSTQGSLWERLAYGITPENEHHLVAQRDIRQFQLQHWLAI

[22] = biological target: Sodium-dependent dopamine transporter (Homo sapiens, UniProt Q01959); experiment: Selectivity interaction (CEREP panel (Eurofins, radioligand binding assay, enzymes, GPCRS, transporters, and ion channels)) EUB0000308b SLC6A3; details: at 10 µM
Sodium-dependent dopamine transporter, sequence (Q01959 whole entry): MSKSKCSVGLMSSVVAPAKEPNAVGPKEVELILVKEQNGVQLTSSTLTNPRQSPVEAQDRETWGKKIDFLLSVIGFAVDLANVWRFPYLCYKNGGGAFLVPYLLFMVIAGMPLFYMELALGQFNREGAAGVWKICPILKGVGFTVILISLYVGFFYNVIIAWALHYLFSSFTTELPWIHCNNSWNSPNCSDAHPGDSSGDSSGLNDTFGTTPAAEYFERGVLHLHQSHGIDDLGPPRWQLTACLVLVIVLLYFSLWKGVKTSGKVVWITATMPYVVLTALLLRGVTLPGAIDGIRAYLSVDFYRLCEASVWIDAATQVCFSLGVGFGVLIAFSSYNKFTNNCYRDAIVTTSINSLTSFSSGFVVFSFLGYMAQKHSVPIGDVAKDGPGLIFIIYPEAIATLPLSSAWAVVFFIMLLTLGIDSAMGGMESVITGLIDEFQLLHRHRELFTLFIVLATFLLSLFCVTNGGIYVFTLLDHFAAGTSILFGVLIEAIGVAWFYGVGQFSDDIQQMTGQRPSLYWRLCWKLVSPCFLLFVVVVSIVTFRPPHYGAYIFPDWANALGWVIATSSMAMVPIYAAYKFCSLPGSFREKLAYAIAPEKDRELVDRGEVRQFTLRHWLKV

[23] = biological target: Sigma non-opioid intracellular receptor 1 (Homo sapiens, UniProt Q99720); experiment: Selectivity interaction (GPCR panel (PDSP screen)) EUB0000308b SIGMAR1
Sigma non-opioid intracellular receptor 1, sequence (Q99720 whole entry): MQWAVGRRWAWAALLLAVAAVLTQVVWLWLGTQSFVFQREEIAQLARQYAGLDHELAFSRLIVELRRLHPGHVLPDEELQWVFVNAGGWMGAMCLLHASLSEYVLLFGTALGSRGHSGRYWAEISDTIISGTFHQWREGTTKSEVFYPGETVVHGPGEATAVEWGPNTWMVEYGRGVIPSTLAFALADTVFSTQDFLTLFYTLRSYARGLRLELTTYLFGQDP

[24] = biological target: T7, Serine/threonine-protein kinase ULK2 (Homo sapiens) (UniProt Q8IYT8); experiment: Selectivity interaction (KinomeScan (DiscoverX)) EUB0000308b ULK2; details: at 1 µM
T7 sequence (whole entry): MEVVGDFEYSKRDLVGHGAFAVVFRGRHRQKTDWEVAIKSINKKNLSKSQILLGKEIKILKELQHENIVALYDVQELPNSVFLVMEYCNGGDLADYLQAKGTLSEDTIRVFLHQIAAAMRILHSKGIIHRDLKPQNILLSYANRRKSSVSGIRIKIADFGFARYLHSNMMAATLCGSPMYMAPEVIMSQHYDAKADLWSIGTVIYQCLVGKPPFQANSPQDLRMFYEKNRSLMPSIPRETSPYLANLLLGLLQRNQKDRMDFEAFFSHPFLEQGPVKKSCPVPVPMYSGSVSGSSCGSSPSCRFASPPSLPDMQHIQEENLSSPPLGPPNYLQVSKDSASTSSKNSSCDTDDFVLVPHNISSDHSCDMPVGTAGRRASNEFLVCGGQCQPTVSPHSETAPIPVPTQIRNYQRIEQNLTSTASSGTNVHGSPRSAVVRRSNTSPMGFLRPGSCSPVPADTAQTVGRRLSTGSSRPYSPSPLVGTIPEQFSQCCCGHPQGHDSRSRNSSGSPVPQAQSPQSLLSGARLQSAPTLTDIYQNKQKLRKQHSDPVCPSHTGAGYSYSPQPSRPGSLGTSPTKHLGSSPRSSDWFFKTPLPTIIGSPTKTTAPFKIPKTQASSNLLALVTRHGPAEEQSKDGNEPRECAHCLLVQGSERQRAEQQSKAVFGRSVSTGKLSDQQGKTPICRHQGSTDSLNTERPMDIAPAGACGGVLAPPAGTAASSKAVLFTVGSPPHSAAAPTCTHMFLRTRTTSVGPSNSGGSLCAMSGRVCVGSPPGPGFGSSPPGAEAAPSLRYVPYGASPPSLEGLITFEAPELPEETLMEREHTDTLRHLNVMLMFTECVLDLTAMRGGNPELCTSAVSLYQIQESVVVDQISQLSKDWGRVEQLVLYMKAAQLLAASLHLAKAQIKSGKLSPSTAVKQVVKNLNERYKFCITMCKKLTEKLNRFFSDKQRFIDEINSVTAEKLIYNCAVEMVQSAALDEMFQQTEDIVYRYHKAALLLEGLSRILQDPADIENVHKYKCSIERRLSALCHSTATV

CN(C)CC#Cc1ccc(OCCCc2sc(N3CCc4cccc(C(=O)Nc5nc6ccccc6s5)c4C3)nc2C(=O)O)c(F)c1 [A-1155463]
% of inhibition [1]: 71.6% | % of inhibition [2]: 71.6% | % of inhibition [3]: 99.1% | % of inhibition [4]: 99.1% | % of inhibition [5]: 98.9% | % of inhibition [6]: 98.9% | % of inhibition [7]: 69.2% | % of inhibition [8]: 69.2% | % of inhibition [9]: 77.9% | % of inhibition [10]: 77.9% | % of control [11]: 38% | % of inhibition [12]: 62.2% | % of inhibition [13]: 62.2% | % of control [14]: 9% | % of inhibition [15]: 94.9% | % of inhibition [16]: 94.9% | Ki [17]: 794 nM | % of inhibition [18]: 74.5% | % of inhibition [19]: 74.5%

Clc1cccc(-c2nnnn2Cc2cccnc2)c1Cl
% of inhibition [20]: 31% | % of inhibition [21]: 32% | % of inhibition [22]: 43% | Ki [23]: 505 nM | % of control [24]: 46%
